What was measured:
[1] = system: LGR5 expression in CRC cell lines; experiment: LGR5 expression by flow cytometry in treated CRC cell lines; type: cell-based, human; conditions: panel DLD1, HCT116, LS174t, LoVo, SW48, SW480, SW620; 1 um, 72 hrs
Protocol: A panel of CRC cell lines including DLD1, HCT116, LS174t, LoVo, SW48, SW480 and SW620 were treated with a PI3K/mTOR dual inhibitor (NVP) or 2 different cytotoxic agents including SN38 (active metabolite of Irinotecan) or 5FU (5 fluorouracil). Cells were treated with the above agents at 1 um and were harvested after 72 hrs. Cells were then stained with anti-LGR5 Mab conjugated to Alexa Fluor647 and the data were analyzed by flow cytometry using a FACScalibur.

[2] = system: LGR5 expression in pancreatic cell lines; experiment: LGR5 expression by flow cytometry in treated pancreatic cell lines; type: cell-based, human; conditions: panel AsPc1, HPAFII, PANC1, BxPC3, CFPAC, PANC10.05, Capan2, SW1990
Protocol: The pancreatic cell lines that were tested include: AsPc1, HPAFII, PANC1, BxPC3, CFPAC, PANC10.05, Capan2 and SW1990.

[3] = system: LGR5 expression in JH109, ASPC1 and PANC1 tumors; experiment: QPCR of LGR5 expression in treated pancreatic tumors; type: in vivo, mice; conditions: standard of care: Gemzar and Abraxane in JH109, Gemzar alone in PANC1 and ASPC1
Protocol: LGR5 expression in metastatic pancreatic patient derived xenografts was investigated using the quantitative polymerase chain reaction (QPCR). A sample of tumor tissue was flash frozen or added to a cryovial containing RNAlater (Qiagen, CA), and transferred to −70° C. after incubation at 4° C. for several hours. Total RNA was extracted using a Qiagen RNeasy extraction kit (Qiagen, CA), and cDNA was synthesized using a SuperScriptIII kit (Life Technologies, CA) and protocols provided by the manufacturer. Human LGR5 transcript abundance was measured using human specific LGR5 and GAPDH primers and the following thermal condition in the StepOne Thermocycler (Life Technologies, CA): 50° C. (2 min); 90° C. (2 min) and 40 cycles of 90° C. (15 sec) and 60° C. (1 min) and melt curve assessment (from 65° C.-95° C.). LGR5 abundance was quantified using 2^δCt equation.
LGR5 expression was investigated in a series of pancreatic tumors including JH109, ASPC1 and PANC1.

O=c1[nH]cc(F)c(=O)[nH]1 [5FU, 5 fluorouracil]
LGR5 expression (flow cytometry) [1]: did not induce LGR5 expression in any of these lines

CCc1c2c(nc3ccc(O)cc13)-c1cc3c(c(=O)n1C2)COC(=O)[C@]3(O)CC [SN38]
LGR5 expression (flow cytometry) [1]: promoted LGR5 expression in HCT116, LS174t, SW48, SW480 and especially SW620 cells

Nc1ccn([C@@H]2O[C@H](CO)[C@@H](O)C2(F)F)c(=O)n1 [gemcitabine, reference compound]
LGR5 expression (flow cytometry) [2]: upregulates LGR5 in PANC1
LGR5 expression in tumors (QPCR) [3]: induction in LGR5 expression

CC(=O)O[C@H]1C(=O)[C@@]2(C)[C@H]([C@H](OC(=O)c3ccccc3)[C@]3(O)C[C@H](OC(=O)[C@H](O)[C@@H](NC(=O)c4ccccc4)c4ccccc4)C(C)=C1C3(C)C)[C@]1(OC(C)=O)CO[C@@H]1C[C@@H]2O [taxol]
LGR5 expression (flow cytometry) [2]: increased LGR5 expression in HPAFII
